# Laboratory results as given in US11707474B2, “Methods for treating acute myeloid leukemia and related conditions” (GlycoMimetics, Inc., priority 2018, dated 2023).
# “And” between values parts separate entries of the source, which are not always exact repeats. Identical values can stand only once. Like-named read-outs stand apart in the source and are kept apart here.
# Assays:
# human AML blasts = assay: Orthotopic model of human AML with cytarabine and DNR; format: in vivo, NOD-SCID mice
# Experimental: The impact of a compound of Formula (I) on survival was evaluated in NOD-SCID mice in an orthotopic model of human AML in combination with cytarabine and DNR.
# 10 mg/kg per day was identified as the minimally active murine dose that augmented cytarabine and DNR survival benefits.
# [1] = test system: relapsed/refractory (R/R) AML; assay: Exposure-response analysis for efficacy; format: in vivo, human; conditions: 46 R/R AML subjects; 5, 10, 20 mg/kg BID with MEC
# Experimental: To generate exposure metrics for the analyses in Example 14 and Example 15, a Pop-PK analysis, based on sampling of plasma concentrations (Cp) of the compound of Formula (I) during induction treatment, was conducted to identify an appropriate PK model, key covariates of the model, and to generate post hoc population PK metrics for all patients sampled for PK. The Pop-PK analysis comprised 59 subjects, 46 subjects diagnosed with relapsed/refractory (R/R) AML who were administered a compound of Formula (I) with MEC chemotherapy and 13 older subjects (aged 60 years or older) with newly diagnosed AML who were administered a compound of Formula (I) with 7+3 chemotherapy. Pop-PK modeling identified a three compartment model with renal function as the only significant covariate.
# For Example 14, Exposure-Response (“E-R”) analysis evaluating efficacy measures against PK metrics was conducted using clinical response efficacy data from the 46 R/R AML subjects. R/R AML subjects were administered MEC chemotherapy and 5, 10, and 20 mg/kg of a compound of Formula (I) BID (i.e. 10, 20, and 40 mg/kg per day).
# Exposure metrics were generated using the Pop-PK model described above.
# Using clinical measures of efficacy described in Example 13 each subject was assigned to one of five clinical response categories: CR, CRi, MLFS, PD, and death. […]
# E-selectin [2] = biological target: T1, E-selectin (Homo sapiens, UniProt P16581); assay: E-selectin competitive binding assay (sLe^a polyacrylamide conjugate)
# T1 construct: fused on or other part: Ig (immunoglobulin Fc) part fused on as a handle for immobilisation
# T1 sequence (P16581 22-175 limits assumed): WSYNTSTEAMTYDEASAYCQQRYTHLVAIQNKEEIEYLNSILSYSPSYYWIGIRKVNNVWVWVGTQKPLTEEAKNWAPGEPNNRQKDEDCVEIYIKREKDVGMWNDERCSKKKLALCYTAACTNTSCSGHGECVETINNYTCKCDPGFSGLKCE
# Experimental: (§1) The inhibition assay to screen for and characterize glycomimetic antagonists of E-selectin is a competitive binding assay, which allows the determination of IC50 and IC90 values. An E-selectin/Ig chimera was immobilized in 96 well microtiter plates by incubation at 37° C. for 2 hours. To reduce nonspecific binding, bovine serum albumin was added to each well and incubated at room temperature for 2 hours. The plate was washed and serial dilutions of the test compounds were added to the wells in the presence of conjugates of biotinylated, sLe^a polyacrylamide with streptavidin/horseradish peroxidase and incubated for 2 hours at room temperature.
# (§2) To determine the amount of sLe^a bound to immobilized E-selectin after washing, the peroxidase substrate, 3, 3′, 5, 5′ tetramethylbenzidine (TMB) was added. After 3 minutes, the enzyme reaction was stopped by the addition of H3PO4, and the absorbance of light at a wavelength of 450 nm was determined. The concentration of a compound of Formula (I), required to inhibit binding by 50% was determined and reported as the IC50. The concentration required to inhibit binding by 90% was determined and reported as the IC90.
# E-selectin [3] = biological target: T2, E-selectin (Mus musculus, UniProt Q00690); assay: as above
# T2 construct: fused on or other part: Ig (immunoglobulin Fc) part fused on as a handle for immobilisation
# T2 sequence (Q00690 22-175 limits assumed): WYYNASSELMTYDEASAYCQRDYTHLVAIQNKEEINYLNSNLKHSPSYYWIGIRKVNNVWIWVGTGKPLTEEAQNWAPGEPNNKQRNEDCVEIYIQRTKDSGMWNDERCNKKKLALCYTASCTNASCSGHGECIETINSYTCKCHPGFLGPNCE
# Experimental: as §1, §2
# KG1 cells = assay: Static adhesion of KG1 cells to E-selectin coated plates; format: cell-based, human; conditions: added post-binding of 5-azacytidine treated KG1 cells
# Excerpt: These findings indicate that hypomethylating agents, including 5-azacytidine, may increase the adhesion of leukemic blasts in the bone marrow and therefore hinder the intended anti-leukemic effect. This could explain a source of chemoresistance, and potential for relapse, in patients treated with hypomethylating agents.
smiles,measurement,setting,value
CC[C@@H]1CC(C(=O)NCCNC(=O)CCOCCOCCOCCOCCOCCOCCOCCOCCOCCOCCOCCOC)C[C@@H](O[C@@H]2O[C@@H](CO)[C@H](O)C(O[C@@H](CC3CCCCC3)C(=O)O)C2NC(C)=O)C1OC1O[C@@H](C)C(O)[C@H](O)[C@@H]1O (stereo partly shown) [compound of Formula (I)],tumor cell chemosensitivity as determined by circulating leukemic cells,human AML blasts; 5 mg/kg BID 10 days with cytarabine and DNR,marked enhancement of tumor cell chemosensitivity
same,numbers of AML blasts vs cytarabine and DNR alone,human AML blasts; 40 mg/kg with cytarabine and DNR,fewer numbers of AML blasts
same,minimally active murine dose that augmented cytarabine and DNR survival benefits,human AML blasts; with cytarabine and DNR,10 mg/kg per day
same,"exposure-response for remission (Fx > IC50, Fx > IC90, Cmax, AUC vs response category)",[1],significant overlap in all exposure-response metrics relating to remission for those subjects attaining CR and those with PD
same,IC50,E-selectin [2],2440 nM and 2400 nM
same,IC90,E-selectin [2],7535 ng/mL
same,IC90,E-selectin [2]; read-out: IC90,7.54 µg/mL and 5.68 µM
same,IC50,E-selectin [3],2450 nM and 2490 nM
same,IC90,E-selectin [3],3.7 µM and 4.91 µg/mL
same,uncoupling of adhesion,KG1 cells,~90%
